This is an account of results in patent US20030134859A1 (SANKYO COMPANY, LIMITED, priority 2000, published 2003).

One assay relates to Rat white adipocytes. The assay can be described thus: Inhibition of the differentiation of adipocytes (Oil Red O). The note with it: 100 nM test compound, 5 days, Oil Red O ABS550, control = 100%, blank = 0%, Table 3; for activity at 0.1 µM: Rattus norvegicus, Adipocyte, 120 h, read-out: Rate of Differentiation (%). The format is cell-based. The essentials:
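Rat white preadipocytes, 5,000 cells/well, given differentiation medium with compound at 100 nM final (0.1% DMSO) for 5 days at 37 °C. Lipid stained with Oil Red O, eluted in DMSO, read at 550 nm; differentiation % relative to DMSO control (100%) and blank (0%).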

Another assay concerns TNF-α production. The assay can be described thus: Inhibitory activity against cytokine (TNF-α) production in LPS-stimulated RAW264.7 cells. The class given is cell-based, mouse. The note with it: 1 μM test compound, LPS 10 ng/mL; for inhibition at 1 µM: Mus musculus. The essentials:
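Mouse RAW264.7 macrophages (5,000 cells/well) stimulated with 10 ng/mL LPS (final) and treated with test compound at 1 μM final for 15 h at 37 °C. Supernatant mouse TNF-α measured by ELISA; % inhibition = 100−(A−B)/(C−B)×100, using unstimulated and LPS-only controls.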

What is called inhibition is the relative decrease from the control value, in per cent. As for `Cc1ccc(S(=O)(=O)Nc2ccc(-c3ccc(NC(=O)c4cc([N+](=O)[O-])ccc4Cl)cc3)cc2)cc1` [Example 94, N-[4-[4-(4-Toluenesulfonylamino)phenyl]phenyl]-(2-chloro-5-nitrophenyl)carboxamide], the activity at 0.1 µM with Rat white adipocytes amounted to 68.8%. This molecule also came in with an inhibition at 1 µM with TNF-α production (RAW264.7, 15 h) of 34.8%.

`CC(=O)Nc1ccc(-c2ccc(NC(=O)c3cc([N+](=O)[O-])ccc3Cl)cc2)cc1` [Example 118, N-[4-(4-Acetylaminophenyl)phenyl]-(2-chloro-5-nitrophenyl)carboxamide]: the activity at 0.1 µM with Rat white adipocytes is 53.6%. In the assay on TNF-α production (RAW264.7, 15 h), this molecule came in with an inhibition at 1 µM of 16.4%.

For the molecule `Cc1ccc(C(=O)Nc2nc3ccc(NC(=O)c4cc([N+](=O)[O-])ccc4Cl)cc3s2)cc1` [Example 149, N-[2-(4-Methylbenzoylamino)benzothiazol-6-yl]-(2-chloro-5-nitrophenyl)carboxamide], the activity at 0.1 µM with Rat white adipocytes was found to be 80.3%. In the assay with TNF-α production (RAW264.7, 15 h), 1 µM produced 18.8% inhibition.

As to `O=C(Nc1ccc(N2CCN(C(=O)c3ccccc3)CC2)cc1)c1cc([N+](=O)[O-])ccc1Cl` [Example 184, N-[4-(4-Benzoylpiperazin-1-yl)phenyl]-(2-chloro-5-nitrophenyl)carboxamide], in the assay with Rat white adipocytes, the activity at 0.1 µM turned out to be 46.6%. In the assay on TNF-α production (RAW264.7, 15 h), testing at 1 µM gave an inhibition of 15%.

For the molecule `CC(C)(C)OC(=O)Nc1ccc(-c2csc(NC(=O)c3cc([N+](=O)[O-])ccc3Cl)n2)cc1` [Example 190, N-[4-(4-tert-Butoxycarbonylaminophenyl)thiazol-2-yl]-(2-chloro-5-nitrophenyl)carboxamide], the activity at 0.1 µM in the assay on Rat white adipocytes came to 64.2%. Also, in the assay with TNF-α production (RAW264.7, 15 h), 1 µM produced 33.8% inhibition.

With `Nc1ccc(-c2ccc(NC(=O)c3cc([N+](=O)[O-])ccc3Cl)cc2)cc1` [Example 192, N-[4-(4-Aminophenyl)phenyl]-(2-chloro-5-nitrophenyl)carboxamide], the “Rate of Differentiation (%)” value in the assay on Rat white adipocytes is listed as 17.6%. In the assay on TNF-α production (15 hr, 1 µM), the “Inhibitory Activity (%) against TNF-α production” value (“Inhibitory Activity (%)” for short) is 27.9%.

Take `CCCN(CCC)c1ccc(-c2ccc(NC(=O)c3cc([N+](=O)[O-])ccc3Cl)cc2)cc1` [Example 194, N-[4-[4-(N,N-Dipropylamino)phenyl]phenyl]-(2-chloro-5-nitrophenyl)carboxamide]: the activity at 0.1 µM in the assay on Rat white adipocytes was 37.1%. For the same molecule, at 1 µM the inhibition with TNF-α production (RAW264.7, 15 h) was 18.4%.

As to `CCCCNc1ccc(-c2ccc(NC(=O)c3cc([N+](=O)[O-])ccc3Cl)cc2)cc1` [Example 203, N-[4-[4-(N-Butylamiino)phenyl]phenyl]-(2-chloro-5-nitrophenyl)carboxamide], the “Rate of Differentiation (%)” value in the assay with Rat white adipocytes was found to be 32.6%. Besides, in the assay on TNF-α production (15 hr), the “Inhibitory Activity (%)” value is reported as 27.1%.

In the case of `CCCNc1ccc(-c2ccc(NC(=O)c3cc([N+](=O)[O-])ccc3Cl)cc2)cc1` [Example 204, N-[4-[4-(N-Propylamino)phenyl]phenyl]-(2-chloro-5-nitrophenyl)carboxamide], the activity at 0.1 µM in the assay with Rat white adipocytes was found to be 38.3%. This molecule came in with an inhibition at 1 µM in the assay with TNF-α production (RAW264.7, 15 h) of 32.7%.

Consider `CCNc1ccc(-c2ccc(NC(=O)c3cc([N+](=O)[O-])ccc3Cl)cc2)cc1` [Example 205, N-[4-[4-(N-Ethylamino)phenyl]phenyl]-(2-chloro-5-nitrophenyl)carboxamide], for which the activity at 0.1 µM with Rat white adipocytes is 39.8%. Also, in the assay on TNF-α production (RAW264.7, 15 h), the inhibition at 1 µM worked out at 34.9%.

For `CCCCCN(CCCC)c1ccc(-c2ccc(NC(=O)c3cc([N+](=O)[O-])ccc3Cl)cc2)cc1` [Example 206, N-[4-[4-(N-Butyl-N-pentylamino)phenyl]phenyl]-(2-chloro-5-nitrophenyl)carboxamide], in the assay with Rat white adipocytes, the activity at 0.1 µM was determined as 30.6%. In the assay on TNF-α production (RAW264.7, 15 h), this molecule gave an inhibition at 1 µM of 27.5%.

In the case of `CCCCN(CCCC)c1ccc(-c2ccc(NC(=O)c3cc([N+](=O)[O-])ccc3Cl)cc2)cc1` [Example 207, N-[4-[4-(N,N-Dibutylamino)phenyl]phenyl]-(2-chloro-5-nitrophenyl)carboxamide], the activity at 0.1 µM in the assay on Rat white adipocytes stood at 32.7%. In the assay on TNF-α production (RAW264.7, 15 h), this molecule displayed an inhibition at 1 µM of 27.1%.

As to `CCCCN(CCC)c1ccc(-c2ccc(NC(=O)c3cc([N+](=O)[O-])ccc3Cl)cc2)cc1` [Example 208, N-[4-[4-(N-Butyl-N-propylamino)phenyl]phenyl]-(2-chloro-5-nitrophenyl)carboxamide], in the assay on Rat white adipocytes, the activity at 0.1 µM was determined as 35.1%. The inhibition at 1 µM with TNF-α production (RAW264.7, 15 h) came to 26.3%.

In the case of `CCCCN(CC)c1ccc(-c2ccc(NC(=O)c3cc([N+](=O)[O-])ccc3Cl)cc2)cc1` [Example 209, N-[4-[4-(N-Butyl-N-ethylamino)phenyl]phenyl]-(2-chloro-5-nitrophenyl)carboxamide], the activity at 0.1 µM in the assay on Rat white adipocytes worked out at 40.1%. In the assay with TNF-α production (RAW264.7, 15 h), this molecule had an inhibition at 1 µM of 26.9%.

For the molecule `CCCN(CC)c1ccc(-c2ccc(NC(=O)c3cc([N+](=O)[O-])ccc3Cl)cc2)cc1` [Example 212, N-[4-[4-(N-Ethyl-N-propylamino)phenyl]phenyl]-(2-chloro-5-nitrophenyl)carboxamide], the activity at 0.1 µM in the assay with Rat white adipocytes is 44%. Besides, at 1 µM the inhibition in the assay on TNF-α production (RAW264.7, 15 h) was 31.2%.

Turning to `CCCCCN(CCCCC)c1ccc(-c2ccc(NC(=O)c3cc([N+](=O)[O-])ccc3Cl)cc2)cc1` [Example 214, N-[4-[4-(N,N-Dipentylamino)phenyl]phenyl]-(2-chloro-5-nitrophenyl)carboxamide], in the assay with Rat white adipocytes, the activity at 0.1 µM is 31.7%. Besides, at 1 µM the inhibition in the assay with TNF-α production (RAW264.7, 15 h) was 20.1%.

Consider `CCCCCN(CC)c1ccc(-c2ccc(NC(=O)c3cc([N+](=O)[O-])ccc3Cl)cc2)cc1` [Example 216, N-[4-[4-(N-Ethyl-N-pentylamino)phenyl]phenyl]-(2-chloro-5-nitrophenyl)carboxamide], for which the activity at 0.1 µM with Rat white adipocytes was 32.1%. Further, at 1 µM the inhibition in the assay with TNF-α production (RAW264.7, 15 h) was 30.6%.

For `CCN(CC)c1ccc(-c2ccc(NC(=O)c3cc([N+](=O)[O-])ccc3Cl)cc2)cc1` [Example 217, N-[4-[4-(N,N-Diethylamino)phenyl]phenyl]-(2-chloro-5-nitrophenyl)carboxamide], the activity at 0.1 µM in the assay with Rat white adipocytes was determined as 21%. At 1 µM the inhibition in the assay with TNF-α production (RAW264.7, 15 h) was 28.7%.

On to `CCN(C)c1ccc(-c2ccc(NC(=O)c3cc([N+](=O)[O-])ccc3Cl)cc2)cc1` [Example 218, N-[4-[4-(N-Ethyl-N-methylamino)phenyl]phenyl]-(2-chloro-5-nitrophenyl)carboxamide], for which the activity at 0.1 µM in the assay on Rat white adipocytes turned out to be 31.7%. Moreover, in the assay with TNF-α production (RAW264.7, 15 h), the inhibition at 1 µM is 20.3%.

For the molecule `O=C(Nc1ccc(-c2ccc(NC(=S)Nc3cccc(F)c3)cc2)cc1)c1cc([N+](=O)[O-])ccc1Cl` [Example 245, N-[4-[4-[(3-Fluorophenyl)aminothiocarbonylamino]phenyl]phenyl]-(2-chloro-5-nitrophenyl)carboxamide], the activity at 0.1 µM with Rat white adipocytes worked out at 36.1%. In the assay on TNF-α production (RAW264.7, 15 h), this molecule registered an inhibition at 1 µM of 34.6%.

On to `CCOC(=O)NC(=S)Nc1ccc(-c2ccc(NC(=O)c3cc([N+](=O)[O-])ccc3Cl)cc2)cc1` [Example 251, N-[4-[4-(Ethoxycarbonylaminothiocarbonylamino)phenyl]phenyl]-(2-chloro-5-nitrophenyl)carboxamide], for which the activity at 0.1 µM in the assay with Rat white adipocytes was 39.9%. For the same molecule, in the assay on TNF-α production (RAW264.7, 15 h), the inhibition at 1 µM is 29%.

On to `O=C(Nc1ccc(-c2ccc(NC(=S)Nc3ccccc3)cc2)cc1)c1cc([N+](=O)[O-])ccc1Cl` [Example 252, N-[4-[4-(Phenylaminothiocarbonylamino)phenyl]phenyl]-(2-chloro-5-nitrophenyl)carboxamide], for which, in the assay with Rat white adipocytes, the activity at 0.1 µM is 36.7%. The molecule further gave an inhibition at 1 µM with TNF-α production (RAW264.7, 15 h) of 19.3%.

As to `O=C(Nc1ccc(-c2ccc(NC(=O)c3cc([N+](=O)[O-])ccc3Cl)cc2)cc1)Nc1ccccc1[N+](=O)[O-]` [Example 254, N-[4-[4-(2-Nitrophenylaminocarbonylamino)phenyl]phenyl]-(2-chloro-5-nitrophenyl)carboxamide], the activity at 0.1 µM in the assay on Rat white adipocytes was 52.8%. This molecule also showed an inhibition at 1 µM with TNF-α production (15 hr) of 44.3%.

Consider `O=C(NC(=S)NCCc1ccc(NC(=O)c2cc([N+](=O)[O-])ccc2Cl)cc1)c1ccccc1` [Example 271, N-[4-(2-Phenylcarbonylaminothiocarbonylaminoethyl)phenyl]-(2-chloro-5-nitrophenyl)carboxamide], for which the activity at 0.1 µM in the assay with Rat white adipocytes was determined as 45.4%. The same molecule gave an inhibition at 1 µM in the assay on TNF-α production (RAW264.7, 15 h) of 25.2%.

On to `CCS(=O)(=O)N(c1ccc(-c2ccc(NC(=O)c3cc([N+](=O)[O-])ccc3Cl)cc2)cc1)S(=O)(=O)CC` [Example 276, N-[4-[4-(N,N-Diethanesulfonylamino)phenyl]phenyl]-(2-chloro-5-nitrophenyl)carboxamide], for which the activity at 0.1 µM with Rat white adipocytes is 14.9%. Also, the inhibition at 1 µM in the assay on TNF-α production (RAW264.7, 15 h) was 28.5%.

On to “N-[4-(Benzenesulfonylaminophenyl)phenyl]-(2-chloro-5-nitrophenyl)carboxamide [Example 128]”, for which, in the assay with Rat white adipocytes, the “Rate of Differentiation (%)” value worked out at 35.4%. Further, the “Inhibitory Activity (%)” value in the assay on TNF-α production (15 hr) is given as 28.8%.
